The values below come from patent publication US20130102593A1, “PYRROLIDINE COMPOUNDS WHICH INHIBIT BETA-SECRETASE ACTIVITY AND METHODS OF USE THEREOF” (priority 2008, published 2013).

One may read the IC50 as the concentration that inhibits the measured activity by half.

This experiment concerns Aβ production. The experiment in a line: Cellular Aβ IC50 determination (memapsin 2 activity in a cellular assay of Aβ production). In kind it is cell-based, Chinese hamster. To be noted: Cricetulus griseus; Chinese hamster ovary cells over-expressing human APP695 with London and Swedish mutations, 24 h, Aβ40 sandwich ELISA; read-out: M2 IC50. As for the experimental part:
The potency of compounds against memapsin 2 activity was determined in a cellular assay of Aβ production. […] Chinese hamster ovary cells that over-express human APP695 with the London and Swedish mutations were seeded in multi-well plates at 10% confluency. Compounds are dissolved in DMSO to concentrations near 1 mM, and diluted into culture media to a final concentration near 4 μM (final 0.4% DMSO). Compounds were diluted serially and applied to cells in multi-well plates 48 h after seeding. Incubation was continued in 5% CO2 at 37° C. for 24 h. Aliquots were removed and assayed for […] content using a sandwich ELISA (BioSource International). Amount of Aβ40 over the range of concentration of compounds, relative to control incubations, were fit to a 4-parameter IC50 model.
(In general: In an ELISA, binding on a coated surface is turned into a signal by an enzyme label.)
As for `Cc1csc([C@H]2CCCN2C(=O)c2cc(C(=O)N[C@@H](Cc3cc(F)cc(F)c3)[C@H](O)[C@H]3CCCN3)cc(-c3ncco3)c2)n1` [1-49, N-((1R,2S)-3-(3,5-difluorophenyl)-1-hydroxy-1((R)-pyrrolidin-2-yl)propan-2-yl)-3-((R)-2-(4-methylthiazol-2-yl)pyrrolidine-1-carbonyl)-5-(oxazol-2-yl)benzamide], the IC50 was below 500 nM. Then `Cc1csc([C@H]2CCCN2C(=O)c2cc(C(=O)N[C@@H](Cc3ccccc3)[C@H](O)[C@H]3CCCN3)cc(C3CC3)c2)n1` [1-50, 3-cyclopropyl-N-((1R,2S)-1-hydroxy-3-phenyl-1-((R)-pyrrolidin-2-yl)propan-2-yl)-5-((R)-2-(4-methylthiazol-2-yl)pyrrolidine-1-carbonyl)benzamide], with above 1000 nM.

As for `Cc1csc([C@H]2CCCN2C(=O)c2cccc(C(=O)N[C@@H](Cc3ccccc3)[C@H](O)CNCc3cccc(C(C)(C)C)c3)c2)n1` [2-10, N-((2S,3R)-4-(3-tert-butylbenzylamino)-3-hydroxy-1-phenylbutan-2-yl)-3-((R)-2-(4-methylthiazol-2-yl)pyrrolidine-1-carbonyl)benzamide, reference compound], the IC50 was below 500 nM. Then `Cc1csc([C@H]2CCCN2C(=O)c2cc(F)cc(C(=O)N[C@@H](Cc3ccccc3)[C@H](O)[C@H]3CCCN3)c2)n1` [1-32, 3-fluoro-N-((1R,2S)-1-hydroxy-3-phenyl-1-((R)-pyrrolidin-2-yl)propan-2-yl)-5-((R)-2-(4-methylthiazol-2-yl)pyrrolidine-1-carbonyl)benzamide], with above 1000 nM; and `Cc1csc([C@H]2CCCN2C(=O)c2cc(C(=O)N[C@@H](Cc3ccccc3)[C@H](O)[C@H]3CCCN3)cc(-n3cccc3)c2)n1` [1-16, N1-((1R,2S)-1-hydroxy-3-phenyl-1-((R)-pyrrolidin-2-yl)propan-2-yl)-3-((R)-2-(4-methylthiazol-2-yl)pyrrolidine-1-carbonyl)-5-(1H-pyrrol-1-yl)benzamide], with 500 to 1000 nM; and `Cc1csc([C@H]2CCCN2C(=O)c2cc(C(=O)N[C@@H](Cc3ccccc3)[C@H](O)[C@H]3CCCN3)cc(-c3cccc(C(F)(F)F)c3)c2)n1` [1-43, N-((1R,2S)-1-hydroxy-3-phenyl-1-((R)-pyrrolidin-2-yl)propan-2-yl)-5-((R)-2-(4-methylthiazol-2-yl)pyrrolidine-1-carbonyl)-3′-(trifluoromethyl)biphenyl-3-carboxamide], with above 1000 nM.

`Cc1csc(CN(C)C(=O)c2cc(C(=O)N[C@@H](Cc3ccccc3)[C@H](O)[C@H]3CCCN3)cc(-c3cnco3)c2)n1` [1-12, N1-((1R,2S)-1-hydroxy-3-phenyl-1-((R)-pyrrolidin-2-yl)propan-2-yl)-N3-methyl-N3-((4-methylthiazol-2-yl)methyl)-5-(oxazol-5-yl)isophthalamide]: the IC50 was above 1000 nM. Then `Cc1csc(CN(C)C(=O)c2cc(C(=O)N[C@@H](Cc3ccccc3)[C@H](O)[C@H]3CCCN3C(=O)OC(C)(C)C)cc(-c3ncco3)c2)n1` [1-7, (R)-tert-butyl 2-((1S,2S)-1-hydroxy-2-(3-(methyl((4-methylthiazol-2-yl)methyl)carbamoyl)-5-(oxazol-2-yl)benzamido)-3-phenylpropyl)pyrrolidine-1-carboxylate], with above 1000 nM; and `Cc1csc(CN(C)C(=O)c2cccc(C(=O)N[C@@H](Cc3ccccc3)[C@H](O)[C@H]3C[C@@H](O)CN3)c2)n1` [1-10, N1-((1R,2S)-1-hydroxy-1-((2R,4R)-4-hydroxypyrrolidin-2-yl)-3-phenylpropan-2-yl)-N3-methyl-N3-((4-methylthiazol-2-yl)methyl)isophthalamide], with above 1000 nM. Turning to `Cc1csc(CN(C)C(=O)c2cc(C(=O)N[C@@H](Cc3ccccc3)[C@H](O)[C@H]3CCCN3)cc(-n3cccc3)c2)n1` [1-13, N1-((1R,2S)-1-hydroxy-3-phenyl-1-((R)-pyrrolidin-2-yl)propan-2-yl)-N3-methyl-N3-((4-methylthiazol-2-yl)methyl)-5-(1H-pyrrol-1-yl)isophthalamide], the IC50 fell in the range of 500 to 1000 nM. Next, `Cc1csc([C@H]2CCCN2C(=O)c2cccc(C(=O)N[C@@H](Cc3cccc(F)c3)[C@H](O)[C@H]3CCCN3)c2)n1` [1-53, N-((1R,2S)-3-(3-fluorophenyl)-1-hydroxy-1-((R)-pyrrolidin-2-yl)propan-2-yl)-3-((R)-2-(4-methylthiazol-2-yl)pyrrolidine-1-carbonyl)benzamide]: 500 to 1000 nM; `Cc1csc([C@H]2CCCN2C(=O)c2cc(C(=O)N[C@@H](Cc3ccccc3)[C@H](O)[C@H]3C[C@@H](OCc4ccccc4)CN3)cc(-c3ncco3)c2)n1` [1-52, N-((1R,2S)-1-((2R,4R)-4-(benzyloxy)pyrrolidin-2-yl)-1-hydroxy-3-phenylpropan-2-yl)-3-((R)-2-(4-methylthiazol-2-yl)pyrrolidine-1-carbonyl)-5-(oxazol-2-yl)benzamide]: below 500 nM.

Turning to `Cc1csc([C@H]2CCCN2C(=O)c2cccc(C(=O)N[C@@H](Cc3ccccc3)[C@H](O)[C@H]3C[C@H](F)CN3)c2)n1` [1-47, N-((1R,2S)-1-((2R,4S)-4-fluoropyrrolidin-2-yl)-1-hydroxy-3-phenylpropan-2-yl)-3-((R)-2-(4-methylthiazol-2-yl)pyrrolidine-1-carbonyl)benzamide], the IC50 was above 1000 nM. Next, `C[C@@H](NC(=O)c1cc(C(=O)N[C@@H](Cc2ccccc2)[C@H](O)[C@H]2CCCN2C(=O)OC(C)(C)C)cc(N(C)S(C)(=O)=O)c1)c1ccccc1` [1-5, (R)-tert-butyl 2-((1S,2S)-1-hydroxy-2-(3-(N-methylmethylsulfonamido)-5-((R)-1-phenylethylcarbamoyl)benzamido)-3-phenylpropyl)pyrrolidine-1-carboxylate]: above 1000 nM; `Cc1csc([C@H]2CCCN2C(=O)c2cc(C(=O)N[C@@H](Cc3ccccc3)[C@H](O)[C@H]3CCCN3)cc(N3CCCC3=O)c2)n1` [1-39, N-((1R,2S)-1-hydroxy-3-phenyl-1-((R)-pyrrolidin-2-yl)propan-2-yl)-3-((R)-2-(4-methylthiazol-2-yl)pyrrolidine-1-carbonyl)-5-(2-oxopyrrolidin-1-yl)benzamide]: below 500 nM. Then `Cc1csc([C@H]2CCCN2C(=O)c2cccc(C(=O)N[C@@H](Cc3ccccc3)[C@H](O)[C@H]3CCCN3)c2)n1` [1-40, N-((1R,2S)-1-hydroxy-3-phenyl-1-((R)-pyrrolidin-2-yl)propan-2-yl)-3-((R)-2-(4-methylthiazol-2-yl)pyrrolidine-1-carbonyl)benzamide], with 500 to 1000 nM; and `Cc1cc(C(=O)N[C@@H](Cc2ccccc2)[C@H](O)[C@H]2CCCN2C(=O)OC(C)(C)C)cc(C(=O)N2CCC[C@@H]2c2nc(C)co2)c1` [1-6, (R)-tert-butyl 2-((1S,2S)-1-hydroxy-2-(3-methyl-5-((R)-2-(4-methyloxazol-2-yl)pyrrolidine-1-carbonyl)benzamido)-3-phenylpropyl)pyrrolidine-1-carboxylate], with above 1000 nM; and `Cc1csc([C@H]2CCCN2C(=O)c2cc(C(=O)N[C@@H](Cc3ccccc3)[C@H](O)[C@H]3CCCN3)cc(N3CCOCC3)c2)n1` [1-33, N-((1R,2S)-1-hydroxy-3-phenyl-1-((R)-pyrrolidin-2-yl)propan-2-yl)-3-((R)-2-(4-methylthiazol-2-yl)pyrrolidine-1-carbonyl)-5-morpholinobenzamide], with above 1000 nM.
